In patent publication US20250179052A1, “PYRIMIDINYL-OXY-QUINOLINE BASED HERBICIDAL COMPOUNDS” (SYNGENTA CROP PROTECTION AG, priority 2022, published 2025):

Tests used:
Settings in all cases: 250 g/ha, evaluated after 13 days, five-point scale
[1] = test system: Setaria faberi (SETFA); test: Pre-emergence herbicidal glasshouse test; assay type: in vivo
[2] = test system: Setaria faberi (SETFA); test: Post-emergence herbicidal glasshouse test; assay type: in vivo
[3] = test system: Amaranthus retoflexus (AMARE); test: Pre-emergence herbicidal glasshouse test; assay type: in vivo
[4] = test system: AMAPA; test: Post-emergence herbicidal glasshouse test; assay type: in vivo, Amaranthus tuberculatus
[5] = test system: Echinochloa crus-galli (ECHCG); test: Post-emergence herbicidal glasshouse test; assay type: in vivo
[6] = test system: AMAPA; test: Pre-emergence herbicidal glasshouse test; assay type: in vivo, Amaranthus tuberculatus
[7] = test system: Amaranthus retoflexus (AMARE); test: Post-emergence herbicidal glasshouse test; assay type: in vivo
[8] = test system: Echinochloa crus-galli (ECHCG); test: Pre-emergence herbicidal glasshouse test; assay type: in vivo
[9] = test system: Ipomoea hederacea (IPOHE); test: Post-emergence herbicidal glasshouse test; assay type: in vivo
[10] = test system: Ipomoea hederacea (IPOHE); test: Pre-emergence herbicidal glasshouse test; assay type: in vivo

Cc1ccc(Oc2ncc(Cl)cn2)c2c(C)nc(C(F)(F)F)nc12 [Compound 1.073]
1 (1=0-20%): percentage damage caused to the plant, SETFA [1] | percentage damage caused to the plant, SETFA [2] | percentage damage caused to the plant, AMARE [3] | percentage damage caused to the plant, AMAPA [4] | percentage damage caused to the plant, ECHCG [5] | percentage damage caused to the plant, AMAPA [6] | percentage damage caused to the plant, AMARE [7] | percentage damage caused to the plant, ECHCG [8] | percentage damage caused to the plant, IPOHE [9] | percentage damage caused to the plant, IPOHE [10]
